Data reported in publication PMC10703426, “New characterization of dihydroergotamine receptor pharmacology in the context of migraine: utilization of a β-arrestin recruitment assay” (Frontiers in Neurology, 2023).
Entries after “also recorded” stand apart in the source; their conditions may differ. Counter-ions that a name gives are not always drawn. Like-named read-outs stand apart in the source and are kept apart here.

Columns and labels:
human 5-HT3 receptor = biological target: T1, human 5-HT3 receptor (Homo sapiens, UniProt P46098); assay: Radioligand competition binding, [3H]GR-65630, HEK-293 cell membranes
T1 construct: host or cells: HEK-293
Procedure: Nonspecific binding was determined in the presence of 10 μM MDL 72222. Following incubation, the samples were filtered rapidly under vacuum through glass fiber filters (GF/B, Packard; Kennesaw, GA) presoaked with 0.3% polyethyleneimine and rinsed several times with ice-cold 50 mM Tris–HCl using a 96-sample cell harvester (UniFilter, Packard). The filters were dried and then counted for radioactivity in a scintillation counter (TopCount, Packard) using a scintillation cocktail (MicroScint 0, Packard). Results are expressed as percent inhibition of the control radioligand–specific binding. The standard reference compound was MDL 72222, which was tested in each experiment at several concentrations to obtain a competition curve from which its half-maximal inhibitory concentration (IC50) was calculated.

human 5-HT4E receptor = biological target: T2, human 5-HT4E receptor (Homo sapiens, UniProt Q13639); assay: Radioligand competition binding, [3H]GR 113808, CHO cell membranes
T2 construct: host or cells: CHO
Procedure: Nonspecific binding was determined in the presence of 100 μM serotonin. Following incubation, the same protocol as described above for 5-HT3 binding was employed. The standard reference compound for 5-HT4E binding is serotonin.

D2 = biological target: T3, D2 (Homo sapiens, UniProt P14416); assay: Radioligand competition binding, [3H]7-OH-DPAT, HEK-293 cells
T3 construct: host or cells: HEK-293

D5 = biological target: T4, D5 (Homo sapiens, UniProt P21918); assay: Radioligand competition binding, [3H]SCH 23390, GH4 cells
T4 construct: ProLink enzyme-donor fragment of β-galactosidase (own knowledge of the PathHunter design)

CXCR7 [1] = biological target: T5, CXCR7 (Homo sapiens, UniProt P25106); assay: Radioligand binding assay (as worded in the discussion); settings: at concentrations <1.0 μM
5-HT1A = settings: IV DHE (53 ng/mL); cited from earlier work
5-HT1B = settings: IV DHE (53 ng/mL); cited from earlier work
5-HT1D [2] = settings: IV DHE (53 ng/mL); cited from earlier work
5-HT2C = settings: IV DHE (53 ng/mL); cited from earlier work
5-HT5A = settings: IV DHE (53 ng/mL); cited from earlier work
5-HT6 = settings: IV DHE (53 ng/mL); cited from earlier work
5-HT7 = settings: IV DHE (53 ng/mL); cited from earlier work
α-adrenergic1 = settings: IV DHE (53 ng/mL); cited from earlier work
α-adrenergic2A = settings: IV DHE (53 ng/mL); cited from earlier work
α-adrenergic2C = settings: IV DHE (53 ng/mL); cited from earlier work
D2S = settings: IV DHE (53 ng/mL); cited from earlier work
D3 = settings: IV DHE (53 ng/mL); cited from earlier work
[3] = 1 mg of IV DHE, cited from earlier work
[4] = 1.0 mg of IV DHE, phase 1 study, cited from earlier work
human 5-HT1B = test system: human 5-HT1B; design: method as in doi:10.1186/1129-2377-14-S1-P75; settings: cited from earlier work
5-HT1D [5] = test system: 5-HT1D; design: method as in doi:10.1186/1129-2377-14-S1-P75; settings: cited from earlier work
5-HT1B/1D receptors = test system: 5-HT1B/1D receptors; design: method as in doi:10.1186/1129-2377-14-S1-P75; settings: cited from earlier work
CXCR7 [6] = biological target: T5, CXCR7; assay: gpcrMAX PathHunter β-arrestin recruitment, agonist mode; format: cell-based; design: ProLink enzyme-donor fragment of β-galactosidase (own knowledge of the PathHunter design)
Procedure: PathHunter cell lines were expanded from freezer stocks according to standard procedures and cells were seeded in a total volume of 20 μL into white-walled, 384-well microplates in duplicate and incubated at 37°C prior to testing. […] Intermediate dilution (1% vehicle concentration) of sample stocks was performed to generate a 5× sample in assay buffer, of which 5 μL was added to the cells and incubated for 90 or 180 min at 37°C or room temperature, depending on the specific receptor, as established by manufacturer optimization protocols (see Supplementary Table 1). For antagonist activity, cells were preincubated with an antagonist for 30 min, followed by an agonist challenge at 80% of the maximal effective concentration (EC80). Intermediate dilution of sample stocks was performed to generate 5× sample in assay buffer, of which 5 μL was added to cells and incubated at 37°C or room temperature for 30 min. […] Microplates were read with a PerkinElmer EnVision (Shelton, CT) instrument for chemiluminescent signal detection.
Measurement of agonist and antagonist activity in the assay was calculated as percent activity of relative luminescence units (from positive control). Significance of agonist/antagonist activity was determined based upon prespecified criteria provided by Eurofins DiscoverX. […]

T1 sequence (P46098 24-478): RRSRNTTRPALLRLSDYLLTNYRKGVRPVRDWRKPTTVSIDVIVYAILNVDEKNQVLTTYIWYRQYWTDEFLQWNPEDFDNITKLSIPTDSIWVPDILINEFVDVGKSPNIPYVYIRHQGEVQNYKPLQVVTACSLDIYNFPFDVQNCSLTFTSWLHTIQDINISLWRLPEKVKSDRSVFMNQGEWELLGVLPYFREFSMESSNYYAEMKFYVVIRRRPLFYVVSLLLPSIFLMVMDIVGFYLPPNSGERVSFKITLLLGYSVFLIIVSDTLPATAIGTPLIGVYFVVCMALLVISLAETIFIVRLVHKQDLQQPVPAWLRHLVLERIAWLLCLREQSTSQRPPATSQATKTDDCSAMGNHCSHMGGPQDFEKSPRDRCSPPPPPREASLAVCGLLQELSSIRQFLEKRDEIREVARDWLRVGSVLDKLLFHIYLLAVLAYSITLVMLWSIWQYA
T5 sequence (P25106 whole entry): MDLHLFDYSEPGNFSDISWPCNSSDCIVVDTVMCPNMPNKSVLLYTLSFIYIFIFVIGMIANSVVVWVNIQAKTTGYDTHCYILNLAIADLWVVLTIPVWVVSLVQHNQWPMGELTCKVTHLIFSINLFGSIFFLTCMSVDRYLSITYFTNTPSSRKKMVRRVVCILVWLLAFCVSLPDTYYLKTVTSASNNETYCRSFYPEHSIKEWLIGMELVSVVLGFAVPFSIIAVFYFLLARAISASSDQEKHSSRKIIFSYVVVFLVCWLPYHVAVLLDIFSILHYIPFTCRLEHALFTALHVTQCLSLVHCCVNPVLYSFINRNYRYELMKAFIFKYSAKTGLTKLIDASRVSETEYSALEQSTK
T2 sequence (Q13639 1-378 isoform Q13639-5): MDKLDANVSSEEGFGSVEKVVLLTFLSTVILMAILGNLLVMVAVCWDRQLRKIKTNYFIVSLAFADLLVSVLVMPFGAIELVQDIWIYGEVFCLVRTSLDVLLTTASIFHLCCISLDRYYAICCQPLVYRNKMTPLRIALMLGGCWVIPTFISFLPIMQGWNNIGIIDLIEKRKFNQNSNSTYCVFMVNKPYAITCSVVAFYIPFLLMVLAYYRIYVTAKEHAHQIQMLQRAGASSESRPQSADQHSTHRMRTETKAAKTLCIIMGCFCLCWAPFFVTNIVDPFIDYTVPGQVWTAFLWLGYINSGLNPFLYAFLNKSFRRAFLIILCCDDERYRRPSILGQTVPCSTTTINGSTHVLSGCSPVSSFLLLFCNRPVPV
T3 sequence (P14416 1-414 isoform P14416-2): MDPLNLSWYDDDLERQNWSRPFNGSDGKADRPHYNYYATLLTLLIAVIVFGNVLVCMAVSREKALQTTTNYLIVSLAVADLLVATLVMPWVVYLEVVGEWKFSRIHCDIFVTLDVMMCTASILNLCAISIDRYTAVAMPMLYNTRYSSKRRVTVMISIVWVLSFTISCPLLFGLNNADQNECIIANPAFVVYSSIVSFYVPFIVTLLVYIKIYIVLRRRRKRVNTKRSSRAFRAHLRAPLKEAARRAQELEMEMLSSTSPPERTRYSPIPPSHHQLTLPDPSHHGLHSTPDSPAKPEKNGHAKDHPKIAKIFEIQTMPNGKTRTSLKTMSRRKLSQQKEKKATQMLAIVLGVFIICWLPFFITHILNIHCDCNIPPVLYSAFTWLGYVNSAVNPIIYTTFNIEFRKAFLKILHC
T4 sequence (P21918 whole entry, the tested form may be a part): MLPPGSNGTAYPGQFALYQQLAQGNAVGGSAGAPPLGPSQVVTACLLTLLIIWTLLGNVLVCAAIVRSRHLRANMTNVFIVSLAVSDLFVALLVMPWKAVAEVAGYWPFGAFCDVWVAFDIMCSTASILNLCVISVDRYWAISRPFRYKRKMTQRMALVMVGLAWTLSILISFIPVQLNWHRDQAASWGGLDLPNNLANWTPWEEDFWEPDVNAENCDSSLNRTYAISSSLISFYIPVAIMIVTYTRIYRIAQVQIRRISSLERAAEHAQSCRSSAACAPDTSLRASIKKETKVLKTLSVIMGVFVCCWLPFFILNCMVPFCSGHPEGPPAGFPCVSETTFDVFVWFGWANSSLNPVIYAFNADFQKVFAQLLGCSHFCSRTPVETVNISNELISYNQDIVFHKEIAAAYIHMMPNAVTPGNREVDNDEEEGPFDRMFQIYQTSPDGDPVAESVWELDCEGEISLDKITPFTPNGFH

For `CN1C[C@H](C(=O)N[C@]2(C)O[C@@]3(O)[C@@H]4CCCN4C(=O)[C@H](Cc4ccccc4)N3C2=O)C[C@@H]2c3cccc4[nH]cc(c34)C[C@H]21` [DHE, Dihydroergotamine mesylate], which IC50 (human 5-HT3 receptor) is on record?
Its IC50 is greater than 300 nM.

What about the “binding to the 5-HT3 receptor” value (human 5-HT3 receptor; at concentrations up to 300 nM) of the same molecule?
Its value is “did not bind; also recorded: did not exhibit binding”.

And the IC50 (human 5-HT4E receptor)?
The IC50 was 230 nM.

And the IC50 (D2)?
Its IC50 is 0.47 nM.

And the IC50 (D5)?
Its IC50 is 370 nM.

And the “DHE binding/activity at CXCR7” value (CXCR7 [1])?
The value was “Additional notes • Radioligand binding assays reported here did not show DHE binding at concentrations <1.0 μM; therefore, agonist activity of DHE on CXCR7 is unlikely in clinically relevant conditions”.

What about the “receptor radioligand binding (active binding)” value (“receptor radioligand binding” below) (5-HT1A) of the same molecule?
Its value is “X (An X denotes active binding)”.

What about the “receptor radioligand binding” value (5-HT1B) of the same molecule?
The value was “X (An X denotes active binding)”.

What about the “receptor radioligand binding” value (5-HT1D [2]) of the same molecule?
Its value is “X (An X denotes active binding)”.

And the “receptor radioligand binding” value (5-HT2C)?
Its value is “X (An X denotes active binding)”.

What about the “receptor radioligand binding” value (5-HT5A) of the same molecule?
The value was “X (An X denotes active binding)”.

And the “receptor radioligand binding” value (5-HT6)?
The value was “X (An X denotes active binding)”.

What about the “receptor radioligand binding” value (5-HT7) of the same molecule?
The value was “X (An X denotes active binding)”.

What about the “receptor radioligand binding” value (α-adrenergic1) of the same molecule?
Its value is “X (An X denotes active binding)”.

What about the “receptor radioligand binding” value (α-adrenergic2A) of the same molecule?
The value was “X (An X denotes active binding)”.

What about the “receptor radioligand binding” value (α-adrenergic2C) of the same molecule?
Its value is “X (An X denotes active binding)”.

And the “receptor radioligand binding” value (D2S)?
The value was “X (An X denotes active binding)”.

What about the “receptor radioligand binding” value (D3) of the same molecule?
The value was “X (An X denotes active binding)”.

And the “maximum plasma concentration (Cmax)” value [3]?
The value was 53 ng/mL.

What about the Cmax ([3]; read-out: maximum plasma concentration (Cmax)) of the same molecule?
The Cmax was roughly 91 nM.

What about the “Human plasma Cmax” value [4] of the same molecule?
Its value is 14.2 ng/mL.

And the Cmax ([4]; read-out: Human plasma Cmax)?
The Cmax was roughly 24 nM.

What about the dissociation half-life (human 5-HT1B) of the same molecule?
Its dissociation half-life is 1.38 h.

What about the dissociation half-life (5-HT1D [5]) of the same molecule?
Its dissociation half-life is 1.28 h.

And the “time bound to the receptors longer than sumatriptan” value (5-HT1B/1D receptors; 5-HT1B and 5-HT1D)?
Its value is 8 to 14 h.

What about the “dissociation half-lives, times longer than those of sumatriptan” value (5-HT1B/1D receptors; human 5-HT1B and 5-HT1D) of the same molecule?
The value was “approximately 10 times”.

And the EC50 (CXCR7 [6])?
Its EC50 is 6000 nM.

And the “DHE activity (screening)” value (CXCR7 [6]; 10 μM, >30% activity = agonist)?
Its value is “Agonist”.
